# Patent US11279733B2, “Peptide antibiotics” (priority 2017, dated 2022)
# Read-outs that look alike come from different tables or passages of the source. Positions of bridges follow the written chain, without caps; N, C: chain ends. Non-standard residues stand in square brackets, D forms with d. Residues, ends and D or L forms follow the SMILES beside them. *: point of attachment. Decanoyl(3R-OH) = CCCCCCC[C@@H](O)CC(=O)*; dBip = N[C@H](Cc1ccc(-c2ccccc2)cc1)C(=O)O; X3 = CCCCCCCCCCCC(O)CC(=O)*; Decanoyl = CCCCCCCCCC(=O)*; dDab = NCC[C@@H](N)C(=O)O; X6 = CC(C)CCCC(O)CC(=O)*; Dab = NCC[C@H](N)C(=O)O; Dap = NC[C@H](N)C(=O)O
# Columns and labels:
# [1] = system: K. pneumoniae ATCC 700603, MDR; settings: ATCC 700603
# Method: (§1) Bacteria were either obtained from American Type Culture Collection (ATCC; Manassas, Va., USA) or independent academic clinical isolate collections, as listed in Table 18 below. Bacteria were cultured in Nutrient broth (NB; Bacto Laboratories, catalogue No. 234000) or Mueller Hinton broth (MHB; Bacto Laboratories, catalogue No. 211443) at 37° C. overnight with shaking (˜180 RPM). A sample of each culture was then diluted 50-fold in fresh MHB and incubated at 37° C. for 2-3 h with shaking (˜180 RPM). Compound stock solutions were prepared as 0.64 mg/mL or 2.56 mg/mL in water. The compounds, at twice the final desired concentration, were serially diluted 2-fold across the wells of 96-well plates (Polystyrene, Corning, catalogue No. 3370). Mid-log phase bacterial cultures (after 2-3 h incubation) were diluted to a final concentration of 1×10^6 colony forming units (CFU)/mL, and 50 μL was added to each well giving a final cell density of 5×10^5 and a compound concentration range of 32 μg/mL to 0.015 μg/mL (128-0.06 μg/mL against P. aeruginosa PA9704).
# [2] = system: K. pneumoniae GN_102 PmxR; settings: GN 102 PmxR
# Method: as §1
# [3] = system: P. aeruginosa GN_105, PmxR; settings: GN 105, PmxR
# Method: as §1
# [4] = system: K. pneumoniae ATCC BAA-2146, NDM-1 pos; settings: ATCC BAA-2146
# Method: as §1
# [5] = system: K. pneumoniae GN_106, PmxR; settings: GN 106, PmxR
# Method: as §1
# A. baumannii GN_093 PmxR = settings: GN 093 PmxR
# Method: as §1
# K. pneumoniae ATCC 13883 = settings: ATCC 13883
# Method: as §1
# [6] = system: P. aeruginosa GN_043, PmxR
# Method: as §1
# A. baumannii ATCC 19606 = settings: ATCC 19606
# Method: as §1
# E. coli ATCC 25922 = settings: ATCC 25922
# Method: as §1
# [7] = system: S. aureus ATCC 25923, MSSA; settings: ATCC 25923
# Method: as §1
# P. aeruginosa ATCC 27853 = settings: ATCC 27853
# Method: as §1
Structure (SMILES),"MIC K. pneumoniae ATCC 700603, MDR [1] [µg/mL]",MIC K. pneumoniae GN_102 PmxR [2] [µg/mL],"MIC P. aeruginosa GN_105, PmxR [3] [µg/mL]","MIC K. pneumoniae ATCC BAA-2146, NDM-1 pos [4] [µg/mL]","MIC K. pneumoniae GN_106, PmxR [5] [µg/mL]",MIC A. baumannii GN_093 PmxR (A. baumannii GN_093 PmxR) [µg/mL],MIC K. pneumoniae ATCC 13883 (K. pneumoniae ATCC 13883) [µg/mL],"MIC P. aeruginosa GN_043, PmxR [6] [µg/mL]",MIC A. baumannii ATCC 19606 (A. baumannii ATCC 19606) [µg/mL],MIC E. coli ATCC 25922 (E. coli ATCC 25922) [µg/mL],"MIC S. aureus ATCC 25923, MSSA [7] [µg/mL]",MIC P. aeruginosa ATCC 27853 (P. aeruginosa ATCC 27853) [µg/mL],"MIC, K. pneumoniae ATCC 700603, MDR [1] [µg/mL]","MIC, K. pneumoniae ATCC BAA-2146, NDM-1 pos [4] [µg/mL]","MIC, K. pneumoniae ATCC 13883 (K. pneumoniae ATCC 13883) [µg/mL]","MIC P. aeruginosa GN_043, PmxR ([6]; Table 6, polymyxin-resistant) [µg/mL]","MIC, A. baumannii ATCC 19606 (A. baumannii ATCC 19606) [µg/mL]","MIC, E. coli ATCC 25922 (E. coli ATCC 25922) [µg/mL]","MIC, S. aureus ATCC 25923, MSSA [7] [µg/mL]","MIC, P. aeruginosa ATCC 27853 (P. aeruginosa ATCC 27853) [µg/mL]",also measured
"CCCCCCCCCCCC(O)CC(=O)N[C@H](CCN)C(=O)N[C@H]1CCNC(=O)[C@H](CC(C)C)NC(=O)[C@H](CCN)NC(=O)[C@H](CCN)NC(=O)[C@H](CC(C)C)NC(=O)[C@@H](Cc2ccccc2)NC(=O)[C@H](CCN)NC1=O (stereo partly drawn) [compound 5015, 3OH-nC13CO-D-Dab-cyc[L-Dab-L-Dab-D-Phe-L-Leu-L-Dab-L-Dab-L-Leu]] (X3-[dDab][Dab][Dab][dF]L[Dab][Dab]L; lactam 2-C)",8,8,4,8,4,8,4,4,4,4,4,4,,,,,,,,,
"CCCCCCCCCC(=O)N[C@H](CCN)C(=O)N[C@H]1CCNC(=O)[C@H](CC(C)C)NC(=O)[C@H](CCN)NC(=O)[C@H](CCN)NC(=O)[C@H](CC(C)C)NC(=O)[C@@H](Cc2ccccc2)NC(=O)[C@H](CCN)NC1=O [compound 5017, nC9CO-D-Dab-cyc[L-Dab-L-Dab-D-Phe-L-Leu-L-Dab-L-Dab-L-Leu]] (Decanoyl-[dDab][Dab][Dab][dF]L[Dab][Dab]L; lactam 2-C)",16,32,4,16,16,16,8,2,8,4,16,2,,,,,,,,,
"CCCCCCC[C@@H](O)CC(=O)N[C@@H](CCCCN)C(=O)N[C@H]1CCNC(=O)[C@H](CC(C)C)NC(=O)[C@H](CCN)NC(=O)[C@H](CCN)NC(=O)[C@H](CC(C)C)NC(=O)[C@@H](Cc2ccccc2)NC(=O)[C@H](CCN)NC1=O [compound 5562, 3(R)OH-nC9CO-L-Lys-cyc[L-Dab-L-Dab-D-Phe-L-Leu-L-Dab-L-Dab-L-Leu]] ({Decanoyl(3R-OH)}-K[Dab][Dab][dF]L[Dab][Dab]L; lactam 2-C)",,4,>32,,4,32,,,,,,,4,8,8,4,>32,8,32,2,
"CCCCCCC[C@@H](O)CC(=O)N[C@@H](CCN)C(=O)N[C@H]1CCNC(=O)[C@H](CC(C)C)NC(=O)[C@H](CN)NC(=O)[C@H](CCN)NC(=O)[C@H](CC(C)C)NC(=O)[C@@H](Cc2ccc(-c3ccccc3)cc2)NC(=O)[C@H](CCN)NC1=O [compound 5565, 3(R)OH-nC9CO-L-Dab-cyc[L-Dab-L-Dab-D-Bip-L-Leu-L-Dab-L-Dap-L-Leu]] ({Decanoyl(3R-OH)}-[Dab][Dab][Dab][dBip]L[Dab][Dap]L; lactam 2-C)",8,32,4,16,16,16,4,,8,4,2,4,,,,,,,,,"MIC P. aeruginosa GN_043, PmxR ([6]; polymyxin-resistant): 2 µg/mL"
"CC(C)CCCC(O)CC(=O)N[C@@H](CCN)C(=O)N[C@H]1CCNC(=O)[C@H](CC(C)C)NC(=O)[C@H](CCN)NC(=O)[C@H](CCN)NC(=O)[C@H](CC(C)C)NC(=O)[C@@H](Cc2ccccc2)NC(=O)[C@H](CCN)NC1=O (stereo partly drawn) [compound 5566, nC5(7-Me)CH(OH)CH2CO-L-Dab-cyc[L-Dab-L-Dab-D-Phe-L-Leu-L-Dab-L-Dab-L-Leu]] (X6-[Dab][Dab][Dab][dF]L[Dab][Dab]L; lactam 2-C)",,32,4,,16,16,,,,,,,8,16,4,2,8,4,2,4,
"CCCCCCC[C@@H](O)CC(=O)N[C@H](Cc1c[nH]c2ccccc12)C(=O)N[C@H]1CCNC(=O)[C@H](CC(C)C)NC(=O)[C@H](CCN)NC(=O)[C@H](CCN)NC(=O)[C@H](Cc2ccccc2)NC(=O)[C@@H](CC(C)C)NC(=O)[C@H](CCN)NC1=O [compound 6426, 3(R)OH-nC9CO-D-Trp-cyc[L-Dab-L-Dab-D-Leu-L-Phe-L-Dab-L-Dab-L-Leu]] ({Decanoyl(3R-OH)}-[dW][Dab][Dab][dL]F[Dab][Dab]L; lactam 2-C)",8,4,8,8,4,16,8,,16,4,8,8,,,,,,,,,"MIC P. aeruginosa GN_043, PmxR ([6]; P. aeruginosa GN_043, PmxR): 8 µg/mL"
